# According to ChEMBL document CHEMBL3885881, “DrugMatrix”:
# Species on record: Rattus norvegicus
# Assay: DrugMatrix - Regimen: Daily Repeat
# Format: toxicity, organism-based, Sprague-Dawley
# Set-up: regimen Daily Repeat, gender Male, age 6-8 weeks
# Conditions: in vivo, po, 84 mg/kg, route oral GAVAGE, dose level High, vehicle 100 % WATER; for ABSOLUTE BASOPHIL / ABSOLUTE EOSINOPHIL / ABSOLUTE LYMPHOCYTE / ABSOLUTE MONOCYTE / ABSOLUTE SEGMENTED NEUTROPHIL / BASOPHIL / EOSINOPHIL / ERYTHROCYTE COUNT / HEMATOCRIT / HEMOGLOBIN / LEUKOCYTE COUNT / LYMPHOCYTE / MEAN CORPUSCULAR HEMOGLOBIN / MEAN CORPUSCULAR HEMOGLOBIN CONCENTRATION / MEAN CORPUSCULAR VOLUME / MONOCYTE / NEUTROPHIL / NUCLEATED RED BLOOD CELLS / PLATELET COUNT: tissue Blood; for ALANINE AMINOTRANSFERASE / ALBUMIN / ALKALINE PHOSPHATASE / ASPARTATE AMINOTRANSFERASE / BLOOD UREA NITROGEN / CARBON DIOXIDE / CHLORIDE / CHOLESTEROL / CREATINE PHOSPHOKINASE / CREATININE / GLUCOSE / LACTATE DEHYDROGENASE / LIPASE / PHOSPHORUS / POTASSIUM / SODIUM / TOTAL BILIRUBIN / TOTAL PROTEIN / URIC ACID: tissue Plasma
smiles,measurement,setting,value
Cc1nccn1CC1CCc2c(c3ccccc3n2C)C1=O (stereo unspecified) [ONDANSETRON],ABSOLUTE BASOPHIL,"72 h, time 3 day",0 CELLS/uL
same,ABSOLUTE EOSINOPHIL,"72 h, time 3 day",113.33 CELLS/uL
same,ABSOLUTE LYMPHOCYTE,"72 h, time 3 day",15932.67 CELLS/uL
same,ABSOLUTE MONOCYTE,"72 h, time 3 day",298.67 CELLS/uL
same,ABSOLUTE SEGMENTED NEUTROPHIL,"72 h, time 3 day",1422 CELLS/uL
same,BASOPHIL,"72 h, time 3 day",0%
same,EOSINOPHIL,"72 h, time 3 day",0.67%
same,ERYTHROCYTE COUNT,"72 h, time 3 day",5.63 x10E6/uL
same,HEMATOCRIT,"72 h, time 3 day",35.6%
same,HEMOGLOBIN,"72 h, time 3 day",14.17 G/DL
same,LEUKOCYTE COUNT,"72 h, time 3 day",17.77 x10E3/uL
same,LYMPHOCYTE,"72 h, time 3 day",90%
same,MEAN CORPUSCULAR HEMOGLOBIN,"72 h, time 3 day",25.3 pg
same,MEAN CORPUSCULAR HEMOGLOBIN CONCENTRATION,"72 h, time 3 day",39.83 G/DL
same,MEAN CORPUSCULAR VOLUME,"72 h, time 3 day",63.53 fL
same,MONOCYTE,"72 h, time 3 day",1.67%
same,NEUTROPHIL,"72 h, time 3 day",7.67%
same,NUCLEATED RED BLOOD CELLS,"72 h, time 3 day",0 /100WBC
same,PLATELET COUNT,"72 h, time 3 day",1296 x10E3/uL
same,ALANINE AMINOTRANSFERASE,"72 h, time 3 day",62.67 u/L
same,ALBUMIN,"72 h, time 3 day",4.27 G/DL
same,ALKALINE PHOSPHATASE,"72 h, time 3 day",366.67 u/L
same,ASPARTATE AMINOTRANSFERASE,"72 h, time 3 day",100.67 u/L
same,BLOOD UREA NITROGEN,"72 h, time 3 day",14.67 mg/dL
same,CARBON DIOXIDE,"72 h, time 3 day",26.67 mmol/L
same,CHLORIDE,"72 h, time 3 day",101.33 MEQ/L
same,CHOLESTEROL,"72 h, time 3 day",73.67 mg/dL
same,CREATINE PHOSPHOKINASE,"72 h, time 3 day",312.67 u/L
same,CREATININE,"72 h, time 3 day",0.28 mg/dL
same,GLUCOSE,"72 h, time 3 day",150 mg/dL
same,LACTATE DEHYDROGENASE,"72 h, time 3 day",488.67 u/L
same,LIPASE,"72 h, time 3 day",9.67 u/L
same,PHOSPHORUS,"72 h, time 3 day",13.83 mg/dL
same,POTASSIUM,"72 h, time 3 day",7.1 MEQ/L
same,SODIUM,"72 h, time 3 day",145.17 MEQ/L
same,TOTAL BILIRUBIN,"72 h, time 3 day",0.17 mg/dL
same,TOTAL PROTEIN,"72 h, time 3 day",5.87 G/DL
same,URIC ACID,"72 h, time 3 day",1.77 mg/dL
same,ABSOLUTE BASOPHIL,"120 h, time 5 day",0 CELLS/uL
same,ABSOLUTE EOSINOPHIL,"120 h, time 5 day",0 CELLS/uL
same,ABSOLUTE LYMPHOCYTE,"120 h, time 5 day",12972 CELLS/uL
same,ABSOLUTE MONOCYTE,"120 h, time 5 day",0 CELLS/uL
same,ABSOLUTE SEGMENTED NEUTROPHIL,"120 h, time 5 day",828 CELLS/uL
same,BASOPHIL,"120 h, time 5 day",0%
same,EOSINOPHIL,"120 h, time 5 day",0%
same,ERYTHROCYTE COUNT,"120 h, time 5 day",5.39 x10E6/uL
same,HEMATOCRIT,"120 h, time 5 day",33.4%
same,HEMOGLOBIN,"120 h, time 5 day",13.9 G/DL
same,LEUKOCYTE COUNT,"120 h, time 5 day",13.8 x10E3/uL
same,LYMPHOCYTE,"120 h, time 5 day",94%
same,MEAN CORPUSCULAR HEMOGLOBIN,"120 h, time 5 day",25.8 pg
same,MEAN CORPUSCULAR HEMOGLOBIN CONCENTRATION,"120 h, time 5 day",41.6 G/DL
same,MEAN CORPUSCULAR VOLUME,"120 h, time 5 day",61.9 fL
same,MONOCYTE,"120 h, time 5 day",0%
same,NEUTROPHIL,"120 h, time 5 day",6%
same,NUCLEATED RED BLOOD CELLS,"120 h, time 5 day",0 /100WBC
same,PLATELET COUNT,"120 h, time 5 day",1460 x10E3/uL
same,ALANINE AMINOTRANSFERASE,"120 h, time 5 day",63 u/L
same,ALBUMIN,"120 h, time 5 day",4.2 G/DL
same,ALKALINE PHOSPHATASE,"120 h, time 5 day",265 u/L
same,ASPARTATE AMINOTRANSFERASE,"120 h, time 5 day",62 u/L
same,BLOOD UREA NITROGEN,"120 h, time 5 day",20 mg/dL
same,CARBON DIOXIDE,"120 h, time 5 day",30 mmol/L
same,CHLORIDE,"120 h, time 5 day",103 MEQ/L
same,CHOLESTEROL,"120 h, time 5 day",69 mg/dL
same,CREATINE PHOSPHOKINASE,"120 h, time 5 day",151 u/L
same,CREATININE,"120 h, time 5 day",0.29 mg/dL
same,GLUCOSE,"120 h, time 5 day",150 mg/dL
same,LACTATE DEHYDROGENASE,"120 h, time 5 day",89 u/L
same,LIPASE,"120 h, time 5 day",10 u/L
same,PHOSPHORUS,"120 h, time 5 day",11.8 mg/dL
same,POTASSIUM,"120 h, time 5 day",6.81 MEQ/L
same,SODIUM,"120 h, time 5 day",145.9 MEQ/L
same,TOTAL BILIRUBIN,"120 h, time 5 day",0.1 mg/dL
same,TOTAL PROTEIN,"120 h, time 5 day",6.2 G/DL
same,URIC ACID,"120 h, time 5 day",1.4 mg/dL
